The results in this text go back to PubChem BioAssay (NCI).

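1) Cells in 96-well plates. 2) Compound, 48 h, 5 concentrations. 3) Linear interpolation between surrounding doses. 4) Unreached endpoint = highest concentration. Abbreviation: GI50, concentration required for 50% inhibition of growth. TGI: total growth inhibition.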

Some test systems named below: NCI-H226 lung; ACHN renal; EKVX NSCLC; IGROV1 ovarian; NCI-H23 lung; A549 NSCLC; SNB-19 CNS; SN12C renal; SF-295 CNS; 786-0 renal.
Test in all cases: DTP human tumour cell line panel, 48 h

With `Nc1nc2c(ccc3ccccc32)s1`, the GI50 is greater than 100 µM in the experiment with NCI-H226 lung; greater than 100 µM in the experiment on ACHN renal; 40.5 µM in the experiment on EKVX NSCLC; greater than 100 µM with IGROV1 ovarian; greater than 100 µM in the experiment on NCI-H23 lung; greater than 100 µM with A549 NSCLC. The GI50 with SNB-19 CNS, with SN12C renal, in the experiment with SF-295 CNS and in the experiment with 786-0 renal was greater than 100 µM throughout. Moreover, the TGI in the experiment with NCI-H226 lung, in the experiment with ACHN renal, with EKVX NSCLC, in the experiment on IGROV1 ovarian, with NCI-H23 lung and with A549 NSCLC was greater than 100 µM in each case. The total growth inhibition concentration (TGI) in the experiment on SNB-19 CNS, in the experiment on SN12C renal, in the experiment on SF-295 CNS and with 786-0 renal was greater than 100 µM throughout.
As to `COc1ccc2c(c1)O/C(=C\c1cccc(OCC(=O)Nc3nc(C)c(C)s3)c1)C2=O`, the GI50 in the experiment with NCI-H226 lung was greater than 53 µM; in the experiment with ACHN renal, 2.28 µM; with EKVX NSCLC it was 8.42 µM; in the experiment with IGROV1 ovarian, 0.152 µM; in the experiment on NCI-H23 lung, 1.19 µM; in the experiment with A549 NSCLC it was 2.18 µM. Moreover, the GI50 in the experiment with SNB-19 CNS was 27.5 µM; with SN12C renal, 2 µM; in the experiment on SF-295 CNS, 28.9 µM; in the experiment on 786-0 renal it was 0.715 µM. Further, the total growth inhibition concentration (TGI) in the experiment on NCI-H226 lung was greater than 100 µM; with ACHN renal, 7 µM; in the experiment with EKVX NSCLC, greater than 54.1 µM; in the experiment on IGROV1 ovarian it was 0.316 µM; in the experiment on A549 NSCLC, 6.43 µM; in the experiment with SNB-19 CNS, greater than 100 µM. The concentration for total growth inhibition (TGI) was greater than 100 µM in the experiment with SN12C renal, greater than 100 µM in the experiment with SF-295 CNS and 2.08 µM in the experiment with 786-0 renal.
For the molecule `C=C(CO)CC(/C=C(\C)CC/C=C(\C)CCl)OC(C)=O` (centres undefined), the total growth inhibition concentration (TGI) with NCI-H226 lung, in the experiment on ACHN renal, with EKVX NSCLC, in the experiment on IGROV1 ovarian, in the experiment on NCI-H23 lung and with A549 NSCLC was greater than 100 µM each time. Besides, the TGI in the experiment on SNB-19 CNS, in the experiment on SN12C renal, in the experiment with SF-295 CNS and with 786-0 renal was greater than 100 µM throughout.
For `COc1ccc2c(c1)[n+](=O)c(C(=O)CC(=O)C(=O)Nc1cccc(C)c1C)c(C)n2[O-]`, the total growth inhibition concentration (TGI) in the experiment with NCI-H226 lung, with ACHN renal, in the experiment with EKVX NSCLC, with IGROV1 ovarian, in the experiment on NCI-H23 lung and with A549 NSCLC was greater than 100 µM in each case. The concentration for total growth inhibition (TGI) with SNB-19 CNS, in the experiment on SN12C renal, in the experiment with SF-295 CNS and in the experiment on 786-0 renal was greater than 100 µM in each case.
For `Cc1cccc(Nc2cc(Cl)nc(SCC(=O)O)n2)c1C`, the concentration for total growth inhibition (TGI) with NCI-H226 lung, in the experiment with ACHN renal, with EKVX NSCLC, with IGROV1 ovarian, in the experiment with NCI-H23 lung and in the experiment on A549 NSCLC was greater than 100 µM each time. The TGI in the experiment on SNB-19 CNS, in the experiment on SN12C renal, in the experiment with SF-295 CNS and in the experiment on 786-0 renal was greater than 100 µM throughout.
Regarding `COc1ccc2c(c1)CCc1c(CO)c(COC(=O)NC(C)C)n(C)c1-2`, the TGI was 14.6 µM with NCI-H226 lung; 53.1 µM in the experiment with ACHN renal; greater than 100 µM in the experiment on EKVX NSCLC; 48.3 µM in the experiment on IGROV1 ovarian; 22.1 µM in the experiment with NCI-H23 lung; greater than 78.5 µM in the experiment on A549 NSCLC. The concentration for total growth inhibition (TGI) with SNB-19 CNS is 56.1 µM; in the experiment with SN12C renal, 45.8 µM; in the experiment on SF-295 CNS, 57.7 µM; with 786-0 renal, greater than 100 µM.
For the molecule `Cc1nc(Sc2nc3ccc([N+](=O)[O-])cc3s2)sc1C`, the GI50 was 1.07 µM with NCI-H226 lung; 1.61 µM in the experiment on ACHN renal; 11.6 µM with EKVX NSCLC; 3 µM in the experiment on IGROV1 ovarian; 1.03 µM in the experiment on NCI-H23 lung; 10.4 µM in the experiment with A549 NSCLC. The GI50 in the experiment on SNB-19 CNS was 8.41 µM; in the experiment with SN12C renal, 1.74 µM; in the experiment with SF-295 CNS, 13.8 µM; with 786-0 renal it was 1.78 µM. Besides, the TGI in the experiment on NCI-H226 lung came to 2.84 µM; with ACHN renal, 3.81 µM; in the experiment with EKVX NSCLC it was 24.2 µM; in the experiment with IGROV1 ovarian it was 14.8 µM; in the experiment with NCI-H23 lung it was 4.44 µM; in the experiment with A549 NSCLC, 22.7 µM. Moreover, the total growth inhibition concentration (TGI) was 21.9 µM in the experiment with SNB-19 CNS, 6.04 µM in the experiment on SN12C renal, 26.7 µM in the experiment with SF-295 CNS and 6.1 µM in the experiment on 786-0 renal.
For `CCN(CC)c1ccc(/C=N/NC(=O)CSc2nc3ccccc3c(=O)n2Cc2ccc(S(N)(=O)=O)cc2)c(O)c1`, the GI50 in the experiment on NCI-H226 lung was 0.895 µM; with ACHN renal, 1.58 µM; in the experiment on EKVX NSCLC, 0.65 µM; with IGROV1 ovarian it was 0.785 µM; in the experiment on NCI-H23 lung, 1.96 µM; in the experiment with A549 NSCLC, 1.57 µM. The GI50 was 2.1 µM in the experiment on SNB-19 CNS, 1.93 µM in the experiment with SN12C renal, 1.47 µM in the experiment with SF-295 CNS and 1.84 µM with 786-0 renal. Moreover, the total growth inhibition concentration (TGI) in the experiment on NCI-H226 lung, in the experiment on ACHN renal, in the experiment with EKVX NSCLC, with IGROV1 ovarian, in the experiment with NCI-H23 lung and with A549 NSCLC was greater than 100 µM each time. The TGI in the experiment with SNB-19 CNS, with SN12C renal, in the experiment on SF-295 CNS and in the experiment on 786-0 renal was greater than 100 µM throughout.
